Source: patent publication US4975430A, “CNQX and its analogs as therapeutics for degenerative neural diseases” (The State of Oregon Acting by and Through The State Board …, priority 1989, dated 1990)
pIC50: −log10 of the molar value.

Key:
[1] = test system: NMDA receptor; experiment: NMDA receptor-mediated currents, whole cell patch recordings in dissociated hippocampal neurons; assay type: cell-based, rat; conditions: for effect on NMDA receptor-mediated current: 30 uM NMDA
[2] = test system: non-NMDA receptor for kainate; experiment: kainate-mediated current in dissociated hippocampal neurons (control experiment); assay type: cell-based, rat; conditions: 10 uM CNQX, 20 uM kainate
[3] = molecular target: glycine binding site (NMDA receptor); experiment: 3-H-glycine binding to frontal cortex membranes; conditions: 4 nM 3-H-glycine, washed guinea pig frontal cortex membranes, 30 min on ice; read-out: IC50 for displacement of glycine
[4] = test system: non-NMDA receptors; conditions: U.S. Pat. No. 4,812,458; cited from earlier work
[5] = test system: NMDA receptor; conditions: cited from earlier work; for effect on responses produced by NMDA: literature reports (Honore et al., Blake et al., Fletcher, Dryer et al.)

Structure (SMILES)	effect on NMDA receptor-mediated current ([1]; 10 uM CNQX, 1 uM glycine (FIG. 2A))	effect on NMDA receptor-mediated current ([1]; 10 uM CNQX, 100 uM glycine)	effect on NMDA receptor-mediated current ([1]; 30 uM CNQX, 200 uM glycine, reversed by 500 uM NMDA (FIG. 2B))	dependence of CNQX effects on membrane potential ([1]; currents recorded at +40 mv and -40 mV)	glycine potentiation of NMDA receptor-mediated currents ([1]; varying glycine, 10 uM or 30 uM CNQX (FIG. 1))	effect on kainate-mediated current ([2]; 1 uM glycine)	effect of glycine on suppression of kainate-mediated current ([2]; glycine 1000 uM)	pIC50 [3]	effect on excitation of spinal cord neurons induced by stimulation of non-NMDA receptors [4]	effect on responses produced by NMDA [5]	effect on NMDA concentration response curve ([5]; Birch et al. 1988)	effect on maximal response to NMDA ([5]; high antagonist concentrations, Birch et al. 1988)
N#Cc1cc2[nH]c(=O)c(=O)[nH]c2cc1[N+](=O)[O-] [CNQX, 6-cyano-7-nitroquinoxaline 2,3-dione]	suppresses the response	substantially no effect	relatively low suppression	not dependent on membrane potential	complete potentiation is not achieved	complete suppression	no effect on this suppression	5.24	depress the excitation	little or no effect	–	–
O=c1[nH]c2cc([N+](=O)[O-])c([N+](=O)[O-])cc2[nH]c1=O [DNQX, 6,7-dinitro-quinoxaline-2,3-dione]	–	–	–	–	–	–	–	–	depress the excitation	little or no effect	shift to the right	decrease in maximal response
